Reference: PubChem BioAssay (NCI)
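Briefly, cells in 96-well plates were exposed to five compound concentrations for 48 h, and endpoints were estimated by linear interpolation. Definition used: TGI = concentration required for complete inhibition of growth.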

Experiments:
Assay in all cases: growth of human tumour cells (NCI), 48 h
OVCAR-3 ovarian = test system: OVCAR-3 ovarian
SF-539 CNS = test system: SF-539 CNS
OVCAR-5 ovarian = test system: OVCAR-5 ovarian
DU-145 prostate = test system: DU-145 prostate
MDA-N = test system: MDA-N
MOLT-4 leukemia = test system: MOLT-4 leukemia
K-562 leukemia = test system: K-562 leukemia
CAKI-1 renal = test system: CAKI-1 renal
SK-OV-3 ovarian = test system: SK-OV-3 ovarian
U251 CNS = test system: U251 CNS
A549 NSCLC = test system: A549 NSCLC
NCI-H522 lung = test system: NCI-H522 lung
NCI-H460 lung = test system: NCI-H460 lung
SK-MEL-28 melanoma = test system: SK-MEL-28 melanoma
HCT-116 colon = test system: HCT-116 colon
MCF7 breast = test system: MCF7 breast
HL-60(TB) leukemia = test system: HL-60(TB) leukemia
SK-MEL-2 melanoma = test system: SK-MEL-2 melanoma
IGROV1 ovarian = test system: IGROV1 ovarian
HCC-2998 colon = test system: HCC-2998 colon
TK-10 renal = test system: TK-10 renal
A498 renal = test system: A498 renal
NCI/ADR-RES ovarian = test system: NCI/ADR-RES ovarian
SR leukemia = test system: SR leukemia
HT29 colon = test system: HT29 colon
RPMI-8226 leukemia = test system: RPMI-8226 leukemia
SNB-19 CNS = test system: SNB-19 CNS
OVCAR-4 ovarian = test system: OVCAR-4 ovarian
SN12C renal = test system: SN12C renal
SF-295 CNS = test system: SF-295 CNS
SW-620 colon = test system: SW-620 colon
KM12 colon = test system: KM12 colon
T-47D breast = test system: T-47D breast
UO-31 renal = test system: UO-31 renal
PC-3 prostate = test system: PC-3 prostate
HOP-92 NSCLC = test system: HOP-92 NSCLC
NCI-H23 lung = test system: NCI-H23 lung
786-0 renal = test system: 786-0 renal
EKVX NSCLC = test system: EKVX NSCLC
OVCAR-8 ovarian = test system: OVCAR-8 ovarian
UACC-257 melanoma = test system: UACC-257 melanoma
HOP-62 NSCLC = test system: HOP-62 NSCLC
HCT-15 colon = test system: HCT-15 colon
HS 578T breast = test system: HS 578T breast
CCRF-CEM leukemia = test system: CCRF-CEM leukemia
COLO 205 colon = test system: COLO 205 colon
MALME-3M melanoma = test system: MALME-3M melanoma
UACC-62 melanoma = test system: UACC-62 melanoma
BT-549 breast = test system: BT-549 breast
SK-MEL-5 melanoma = test system: SK-MEL-5 melanoma
SF-268 CNS = test system: SF-268 CNS
LOX IMVI melanoma = test system: LOX IMVI melanoma
MDA-MB-435 = test system: MDA-MB-435
MDA-MB-231 breast = test system: MDA-MB-231 breast
ACHN renal = test system: ACHN renal
NCI-H226 lung = test system: NCI-H226 lung
M14 melanoma = test system: M14 melanoma
SNB-75 CNS = test system: SNB-75 CNS

## O=C1CSC(c2cccc(Cl)c2)N1c1ccc(-n2c(-c3ccccc3)nc3ccccc3c2=O)cc1 (centres undefined)
OVCAR-3 ovarian
  TGI: > 100 µM
SF-539 CNS
  TGI: > 100 µM
OVCAR-5 ovarian
  TGI: > 100 µM
DU-145 prostate
  TGI: > 100 µM
MDA-N
  TGI: > 100 µM
MOLT-4 leukemia
  TGI: > 100 µM
K-562 leukemia
  TGI: > 100 µM
CAKI-1 renal
  TGI: > 100 µM
SK-OV-3 ovarian
  TGI: > 100 µM
U251 CNS
  TGI: > 100 µM
A549 NSCLC
  TGI: > 100 µM
NCI-H522 lung
  TGI: > 100 µM
NCI-H460 lung
  TGI: > 100 µM
SK-MEL-28 melanoma
  TGI: > 100 µM
HCT-116 colon
  TGI: > 100 µM
MCF7 breast
  TGI: > 100 µM
HL-60(TB) leukemia
  TGI: > 100 µM
SK-MEL-2 melanoma
  TGI: > 100 µM
IGROV1 ovarian
  TGI: > 100 µM
HCC-2998 colon
  TGI: > 100 µM
TK-10 renal
  TGI: > 100 µM
A498 renal
  TGI: > 100 µM
NCI/ADR-RES ovarian
  TGI: > 100 µM
SR leukemia
  TGI: > 100 µM
HT29 colon
  TGI: > 100 µM
RPMI-8226 leukemia
  TGI: > 100 µM
SNB-19 CNS
  TGI: > 100 µM
OVCAR-4 ovarian
  TGI: 62.9 µM
SN12C renal
  TGI: > 100 µM
SF-295 CNS
  TGI: > 100 µM
SW-620 colon
  TGI: > 100 µM
KM12 colon
  TGI: > 100 µM
T-47D breast
  TGI: > 100 µM
UO-31 renal
  TGI: 24.7 µM
PC-3 prostate
  TGI: > 100 µM
HOP-92 NSCLC
  TGI: > 100 µM
NCI-H23 lung
  TGI: > 100 µM
786-0 renal
  TGI: > 100 µM
EKVX NSCLC
  TGI: > 100 µM
OVCAR-8 ovarian
  TGI: > 100 µM
UACC-257 melanoma
  TGI: > 100 µM
HOP-62 NSCLC
  TGI: > 100 µM
HCT-15 colon
  TGI: > 100 µM
HS 578T breast
  TGI: > 100 µM
CCRF-CEM leukemia
  TGI: > 100 µM
COLO 205 colon
  TGI: > 100 µM
MALME-3M melanoma
  TGI: > 100 µM
UACC-62 melanoma
  TGI: > 100 µM
BT-549 breast
  TGI: > 100 µM
SK-MEL-5 melanoma
  TGI: > 100 µM
SF-268 CNS
  TGI: > 100 µM
LOX IMVI melanoma
  TGI: > 100 µM
MDA-MB-435
  TGI: > 100 µM
MDA-MB-231 breast
  TGI: > 100 µM
ACHN renal
  TGI: > 100 µM

## Nc1nc2c(c(=O)[nH]1)CN(CCCN1CCOCC1)CN2
OVCAR-3 ovarian
  TGI: > 100 µM
SF-539 CNS
  TGI: > 100 µM
OVCAR-5 ovarian
  TGI: > 100 µM
DU-145 prostate
  TGI: > 100 µM
MDA-N
  TGI: > 100 µM
MOLT-4 leukemia
  TGI: > 100 µM
K-562 leukemia
  TGI: > 100 µM
CAKI-1 renal
  TGI: > 100 µM
U251 CNS
  TGI: > 100 µM
A549 NSCLC
  TGI: > 100 µM
NCI-H522 lung
  TGI: > 100 µM
NCI-H460 lung
  TGI: > 100 µM
SK-MEL-28 melanoma
  TGI: > 100 µM
HCT-116 colon
  TGI: > 100 µM
MCF7 breast
  TGI: > 100 µM
SK-MEL-2 melanoma
  TGI: > 100 µM
IGROV1 ovarian
  TGI: > 100 µM
HCC-2998 colon
  TGI: > 100 µM
TK-10 renal
  TGI: > 100 µM
A498 renal
  TGI: > 100 µM
NCI/ADR-RES ovarian
  TGI: > 100 µM
SR leukemia
  TGI: > 100 µM
NCI-H226 lung
  TGI: > 100 µM
HT29 colon
  TGI: > 100 µM
RPMI-8226 leukemia
  TGI: > 100 µM
SNB-19 CNS
  TGI: > 100 µM
OVCAR-4 ovarian
  TGI: > 100 µM
SN12C renal
  TGI: > 100 µM
SF-295 CNS
  TGI: > 100 µM
SW-620 colon
  TGI: > 100 µM
KM12 colon
  TGI: > 100 µM
T-47D breast
  TGI: > 100 µM
UO-31 renal
  TGI: > 100 µM
PC-3 prostate
  TGI: > 100 µM
HOP-92 NSCLC
  TGI: > 100 µM
NCI-H23 lung
  TGI: > 100 µM
786-0 renal
  TGI: > 100 µM
EKVX NSCLC
  TGI: > 100 µM
OVCAR-8 ovarian
  TGI: > 100 µM
UACC-257 melanoma
  TGI: > 100 µM
HOP-62 NSCLC
  TGI: > 100 µM
HCT-15 colon
  TGI: > 100 µM
HS 578T breast
  TGI: > 100 µM
COLO 205 colon
  TGI: > 100 µM
MALME-3M melanoma
  TGI: > 100 µM
M14 melanoma
  TGI: > 100 µM
UACC-62 melanoma
  TGI: > 100 µM
BT-549 breast
  TGI: > 100 µM
SK-MEL-5 melanoma
  TGI: > 100 µM
SF-268 CNS
  TGI: > 100 µM
LOX IMVI melanoma
  TGI: > 100 µM
MDA-MB-435
  TGI: > 100 µM
MDA-MB-231 breast
  TGI: > 100 µM
ACHN renal
  TGI: > 100 µM

## COc1ccc2cc1Oc1ccc(cc1)CC1c3cc(OC)c(cc3CCN1C)Oc1c(OC)c(OC)cc3c1C(C2)N(C)CC3 (centres undefined)
SF-539 CNS
  TGI: 19.5 µM
OVCAR-5 ovarian
  TGI: > 75 µM
DU-145 prostate
  TGI: 27.9 µM
MDA-N
  TGI: 20.3 µM
MOLT-4 leukemia
  TGI: 32.4 µM
K-562 leukemia
  TGI: 28.7 µM
CAKI-1 renal
  TGI: 29.4 µM
SK-OV-3 ovarian
  TGI: > 75 µM
U251 CNS
  TGI: 24.6 µM
A549 NSCLC
  TGI: 53.4 µM
NCI-H522 lung
  TGI: 20.6 µM
NCI-H460 lung
  TGI: 19.8 µM
SK-MEL-28 melanoma
  TGI: 34.9 µM
HCT-116 colon
  TGI: > 75 µM
MCF7 breast
  TGI: 36.7 µM
HL-60(TB) leukemia
  TGI: 16.3 µM
SK-MEL-2 melanoma
  TGI: 25.6 µM
IGROV1 ovarian
  TGI: 64.2 µM
HCC-2998 colon
  TGI: 19.1 µM
TK-10 renal
  TGI: 20.6 µM
A498 renal
  TGI: 23.9 µM
NCI/ADR-RES ovarian
  TGI: 29.9 µM
SR leukemia
  TGI: 4.33 µM
NCI-H226 lung
  TGI: 51.7 µM
HT29 colon
  TGI: 18 µM
SNB-75 CNS
  TGI: 18.2 µM
SNB-19 CNS
  TGI: 27.1 µM
OVCAR-4 ovarian
  TGI: 24.4 µM
SN12C renal
  TGI: 18.3 µM
SF-295 CNS
  TGI: 21.1 µM
SW-620 colon
  TGI: > 75 µM
KM12 colon
  TGI: 26 µM
T-47D breast
  TGI: 20.5 µM
UO-31 renal
  TGI: 18.8 µM
PC-3 prostate
  TGI: 40.7 µM
HOP-92 NSCLC
  TGI: 34.1 µM
NCI-H23 lung
  TGI: 35.6 µM
786-0 renal
  TGI: 30.4 µM
EKVX NSCLC
  TGI: 31.7 µM
OVCAR-8 ovarian
  TGI: 23.2 µM
UACC-257 melanoma
  TGI: 16.1 µM
HCT-15 colon
  TGI: 18.3 µM
HS 578T breast
  TGI: 25.6 µM
CCRF-CEM leukemia
  TGI: 42.4 µM
COLO 205 colon
  TGI: 11.8 µM
MALME-3M melanoma
  TGI: 23.1 µM
M14 melanoma
  TGI: 15 µM
UACC-62 melanoma
  TGI: 23.3 µM
BT-549 breast
  TGI: 20.9 µM
SK-MEL-5 melanoma
  TGI: 15.9 µM
SF-268 CNS
  TGI: 33.6 µM
LOX IMVI melanoma
  TGI: 28 µM
MDA-MB-435
  TGI: 26.2 µM
MDA-MB-231 breast
  TGI: 21.5 µM
ACHN renal
  TGI: 19 µM
